Data from patent US20070071681A1, “Apparatus and method for computer modeling type 1 diabetes” (Entelos, Inc., priority 2005, published 2007).
Read-outs that look alike come from different tables or passages of the source.

Legend:
NOD mouse = conditions: cited from earlier work; for Protection in the NOD mouse: protective therapeutic interventions suggested to depend on NK cell activities; for Protection from diabetes: pre-diabetic NOD mice
BB rats = conditions: cited from earlier work
[1] = system: average virtual NOD mouse; experiment: Simulation of therapy protocols in the average virtual NOD mouse (computer model of type 1 diabetes); conditions: expectation from published data
Source text: One application of a NOD mouse type 1 diabetes model is to improve understanding of type 1 diabetes pathogenesis in the NOD mouse. Model development therefore focused on islet β cell autoimmunity and tolerance, as well as related mechanisms and interventions. To provide for general immunologic function and not only progression to diabetes, the development effort included representation of several NOD mouse phenotypes. The first phenotype was an average diabetic virtual mouse. […] Typically, a simulation of the average virtual mouse concludes shortly after diabetes diagnosis, which is consistent with post-diabetic sacrifice of NOD mice in the laboratory. […] Additional virtual mice, each with different clinical behaviors and/or underlying pathophysiologies, have also been generated. Similarly, development of modals of type 1 diabetes in other mammals, such as humans, can include the development of various virtual patients representing normal animals or animals having varying degrees of severity or progression of type 1 diabetes.
Because diabetes is typically assessed by measuring blood or urinary glucose, blood glucose levels were represented in the model's clinical read-out. Hyperglycemia (a diabetes indicator) was defined as a glucose level in excess of a commonly used standard (e.g., 200, 250, 300, 350 mg/dl). Glucose control was regulated based on a mathematical relationship describing interactions between blood insulin and glucose concentrations.
These include (i) dynamics of diabetes onset, (ii) dynamics of pancreatic lymph node (PLN) lymphocyte activation and expansion, and (iii) dynamics of islet infiltrate.
Numerous interventions have been tested in the NOD mouse. A major purpose of implementing selected interventions is to provide constraints for the virtual mouse, where constraints are defined as additional behavioral criteria that the virtual mouse should reproduce in a manner substantially consistent with published data. […]

[2] = system: recent onset diabetic patients; conditions: cited from earlier work; for Therapeutic response: insulin tolerization

CN(C(=O)c1c(O)c2ccccc2n(C)c1=O)c1ccccc1 [linomide]
Protection in the NOD mouse (NOD mouse): protection

NC(=O)c1cccnc1 [nicotinamide]
Protection from diabetes (NOD mouse): protection
Protection from diabetes (BB rats): not

Exendin-4: exendin-4; enhances glucose-dependent insulin secretion
Incidence (NOD mouse; Exendin-4, Ogawa 2004, 7-17 days after diagnosis of diabetes, 12 nmol/kg for 4 consec. days twice): No remission
Expected virtual mouse outcome ([1]; Exendin-4, Ogawa 2004 protocol): No remission

Exogenous TGF-β: exogenous TGF-β delivered as 200 μg of pCMV-TGF-β1
Incidence (NOD mouse; Exogenous TGF-β, Piccirillo 1998, 9-32 wks, 200 μg of pCMV-TGF-β1 every 2 wks, at 32 wks, vs 100% control): 42% vs. 100% control at 32 wks
Insulitis (NOD mouse; Exogenous TGF-β, Piccirillo 1998): Reduced severity of insulitis
Other observations (NOD mouse; Exogenous TGF-β, Piccirillo 1998, islet mRNA levels): Reduced mRNA levels of islet IL-12 & IFN-γ

IFN-α
Protection in the NOD mouse (NOD mouse): protective

Oral insulin: orally administered (porcine) insulin for induction of oral tolerance
Incidence (NOD mouse; Oral insulin, Homann 1999 (1 mg), Rx 5-45 weeks, at 45 weeks, vs 63% control): 26% treated vs.
Incidence (NOD mouse; Oral insulin, Zhang 1991 (0.1 mg), Rx 5-52 weeks, at 52 weeks, vs 49% control): 44% treated vs.
Incidence (NOD mouse; Oral insulin, Zhang 1991 (1 mg), Rx 5-52 weeks, at 52 weeks, vs 49% control): 26% treated vs.
Protection against diabetes (NOD mouse; oral administration of insulin, induction of oral tolerance): protect against diabetes
Protection from diabetes (NOD mouse): protection
Expected virtual mouse outcome ([1]; Oral insulin, Homann 1999 (1 mg), at 45 weeks): No diabetes at 45
Expected virtual mouse outcome ([1]; Oral insulin, Zhang 1991 (1 mg), at 52 weeks): No diabetes at 52 weeks
Protection from diabetes (BB rats): not

hOKT3γ1 (Ala-Ala): modified, dimeric non-FcR binding anti CD3 antibody used in human clinical trials
Human clinical trial results ([2]; recent onset diabetic patients, Herold 2002): promising

insulin: insulin tolerization therapy tested in human clinical trials
Therapeutic response ([2]; general clinical trial population): responded poorly
Therapeutic response ([2]; patients characterized by high insulin autoantibody titers): better therapeutic responses

poly(I:C)
Protection in the NOD mouse (NOD mouse): protective
